{"source": "patent US10576151B2", "about": "“Ciclopirox for use in modulation of glucose homeostasis” (UNIVERSITY OF SOUTH CAROLINA, priority 2015, dated 2020)", "key": {"pancreatic islets": {"system": "pancreatic islets", "assay": "Islet survival under increasing glucose (glucotoxicity), CellTiter 96 AQueous One", "format": "cell-based, mice", "details": "for protection from glucotoxicity (islet survival): increasing glucose", "protocol": "Islet Isolation and Viability Assessment. Pancreatic islets were manually isolated from female C57BI/6 mice by the collagenase digestion method (Sigma-Aldrich; Li et al. 2009) and placed in a 96-well plate. The islets were incubated at 37° C. with 95% air and 5% CO2. Islets were manually picked after dithizone (DTZ; Sigma Chemical Co) staining. Before experiments were performed, the islet cells were incubated with extracellular Krebs-Ringer (KR) solution (Sigma-Aldrich) and with increasing amounts of glucose for 24 h and 48 h. Islet cell viability was assessed using CellTiter 96 AQueous One Solution Cell Proliferation Assay from Promega (Madison, USA). Islets from wt, p21-deficient, p53-deficient and CHOP-deficient mice were exposed to CPX at 20 μM for 24 h under increasing glucose amounts in the culture media, then they were let to recover for 48 h in normal glucose-containing media and their survival was assessed (FIG. 9). The 48 h recovery in normal media was deemed necessary because CPX, by inducing p21 expression would inflict cell cycle arrest in islets masking the effects of glucotoxicity. […] The p21-stimulatory activity of CPX in the islets is also p53-independent. […] Consistently with its pro-apoptotic role during ER stress CHOP ablation conferred resistance of islets to glucotoxicity (FIG. 10 at B)."}, "insulin": {"system": "insulin", "assay": "Western blot of insulin levels in islets in culture", "format": "cell-based, mouse", "protocol": "Western Blotting. The mouse islets were treated with CPX 20 μM for 24 h and lysed in RIPA buffer [50 mM Tris, pH 7.2; 150 mM NaCl; 1% sodium deoxycholate; 0.1% SDS; 1% Triton-X 100; 10 mM NaF; 1 mM Na3VO4; protease inhibitor cocktail (1:1000, Sigma, St. Louis, Mo.)] and were subjected to immunoblot analysis by standard methods. Proteins were resolved on a 10% SDS-PAGE and transferred to a nitrocellulose membrane (Bio-Rad, Hercules, Calif.). Membranes were probed overnight with GADD153 (F-168), sc-575 from Santa Cruz Biotechnology (1:50); p21 (F-5), sc-6246 from Santa Cruz Biotechnology (1:200); actin, clone C4 MAB1501 from Millipore (Billerica, Mass., USA) (1:2000); BiP antibody (cat. no. 3183) from Cell Signaling (Danvers, Mass., USA) (1:1000); GRP94 antibody (H-212), sc-11402 from Santa Cruz Biotechnology (1:500); insulin rabbit polyclonal H-86, sc-9168 from Santa Cruz Biotechnology (1:500) antibodies followed by incubation with horseradish peroxidase-conjugated (HRP) anti-mouse (1:10000), goat anti-rabbit IgG (1:10000, Santa Cruz biotechnology Inc., Santa Cruz, Calif., USA) for 1 hr. After incubation with enhanced chemiluminescence reagents (Santa Cruz biotechnology Inc.), membranes were analyzed using an Image J software for Windows.\nIn order to understand better how CPX operates in β cells, it was tested to determine if it affected the efficiency by which insulin is produced following glucose stimulation. […] In view of the antidiabetic activity of CPX in vivo, the inhibition of insulin release appears contradictory. […]\nWhile modulation of insulin release by CPX constitutes a challenging mechanism by which CPX may affect ER stress, how CPX regulates insulin expression remains obscure. […] To test this hypothesis, islets were exposed to iron citrate, alone or combined with CPX, and the levels were recorded of chaperones BiP, GRP94 and CHOP, as well as of insulin."}, "[1]": {"system": "wt mice receiving normal diet", "assay": "Fasting glucose in non-diabetic wild type mice on normal diet", "format": "in vivo, C57BI/6 mice", "details": "non-diabetic wt mice on normal diet with CPX (FIG. 5B, FIG. 7A)", "description": "In Vivo Analysis of Anti-Diabetic Effect of CPX. Mice were randomly grouped. A group of C57BI/6 mice 4-5 weeks old, were fed with either a solution of 10% sucrose and a diet containing 40% kcal as a high-fat diet (HFD; Open Source Diets (New Brunswick, N.J., USA) D12451, 40% calories/fat with free access to (10%) sweetened water (sucrose) or a control chow diet containing 10% of kcal as fat (low-fat diet) and drinking water with no added sucrose (control). Mice with a glucose concentration exceeding 180 mg/dL were considered diabetic, after 2 consecutive glucose measurements. The blood glucose levels were measured using an Accu-Check blood glucose monitor (Roche, Indianapolis, Ind., USA) using blood sample collected from the tail vein. […] Glucose levels of mice were measured by an Accu-Chek Active meter (ROCHE) with blood sample obtained from the tail. […] For insulin resistance test, mice were injected intraperitoneally at a dose of 0.75 units/kg with human insulin (0.75 U/kg body weight; Sigma) at different time points as indicated, as for glucose tolerance after insulin injection and blood glucose was measured as described. In order to test if the antidiabetic activity of CPX was elicited only in diabetic mice or in non-diabetic mice as well, plasma glucose levels were assessed in wt mice that were receiving normal diet in combination with CPX."}}, "note": "“Also recorded” adds a separate entry of the source."}
{"smiles": "Cc1cc(C2CCCCC2)n(O)c(=O)c1", "note": "[CPX, 6-cyclohexyl-1-hydroxy-4-methylpyridin-2(1H)-one]", "values": [{"measurement": "protection from glucotoxicity (islet survival)", "setting": "pancreatic islets; p21-deficient islets, CPX 20 μM 24 h then 48 h recovery (FIG. 10D)", "value": "not p21-deficient animals"}, {"measurement": "protection from glucotoxicity (islet survival)", "setting": "pancreatic islets; p53-deficient islets, CPX 20 μM 24 h then 48 h recovery (FIG. 10C)", "value": "A similar trend was also found for p53"}, {"measurement": "protection from glucotoxicity (islet survival)", "setting": "pancreatic islets; wt islets, CPX 20 μM 24 h then 48 h recovery (FIG. 10A)", "value": "protected wt"}, {"measurement": "islet growth", "setting": "pancreatic islets; wt islets, normal glucose, CPX 20 μM 24 h then 48 h recovery (FIG. 10A)", "value": "significantly inhibited islet growth"}, {"measurement": "levels of intracellular insulin", "setting": "insulin; islets in high glucose-containing media with CPX (FIG. 11B)", "value": "moderate suppression"}, {"measurement": "insulin production", "setting": "insulin; islets, iron citrate with concomitant CPX (FIG. 12A)", "value": "compromised the effects of iron citrate"}, {"measurement": "glucose levels (fasting)", "setting": "[1]", "value": "no reduction of glucose levels was recorded; also recorded: not affected"}]}
